Earlier results in patent publication US20130140210A1, “LOW-DOSED SOLID ORAL DOSAGE FORMS FOR HRT” (BAYER INTELLECTUAL PROPERTY GMBH, priority 2010, published 2013).

Tested on: moderate or severe hot flushes in menopausal women
Conditions: 2 mg E2

In the case of C[C@]12CC[C@@H]3c4ccc(O)cc4CC[C@H]3[C@@H]1CC[C@@H]2O [E2, estradiol], the estrogen-related adverse events is listed as “increased estrogen-related adverse events”.
